Measurements from patent publication US10155021B2, “Antimicrobial 4-oxoquinolizines” (Emergent Product Development Gaithersburg Inc., priority 2011, dated 2018).
Converted amounts (≈) assume the structure as drawn. Where two headings read alike, the source gives them in different places.

Columns and labels:
P. aeruginosa 1388-3-02 = test: MIC, panel of quinolone-resistant strains (CLSI); assay type: cell-based; details: Pseudomonas aeruginosa, 1388302; CIP R, POL R
A. baumannii A472 [1] = test: MIC without and with sub-inhibitory polymyxin B (Example 4); assay type: cell-based, Acinetobacter baumannii; details: for MIC: Acinetobacter baumannii, A472, A. baumannii A472, without polymyxin B, read-out: MIC without PB
A. baumannii J2 [2] = test: Preliminary MBC without and with sub-inhibitory polymyxin B (Example 4); assay type: cell-based, Acinetobacter baumannii; details: Acinetobacter baumannii, J2, A. baumannii J2, without polymyxin B, preliminary MBC, read-out: MBC without PB
[3] = test system: Acinetobacter sp. (H064200250); test: as above; assay type: cell-based; details: Acinetobacter, without polymyxin B, preliminary MBC, read-out: MBC without PB
Outline: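 Read-out: the minimum concentration at which colonies were reduced by ca. 90% relative to positive control, usually seen as isolated colonies or a clear plate. Plates had been kept 18-20 hours at 37° C beforehand.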

A. baumannii A329 [4] = test: MIC determination for Acinetobacter strains (Example 3); assay type: cell-based; details: LEV R, CIP R, MRP R, IMP R, AMK R, TET R
A. baumannii A390 = test: Preliminary MBC without and with sub-inhibitory polymyxin B (Example 4); assay type: cell-based, Acinetobacter baumannii; details: Acinetobacter baumannii, A390, A. baumannii A390; without polymyxin B; 2nd experiment; preliminary MBC; read-out: MBC without PB
A. baumannii A489 [5] = test: as above; assay type: cell-based, Acinetobacter baumannii; details: Acinetobacter baumannii, A489, A. baumannii A489, without polymyxin B, read-out: MBC without PB
P. aeruginosa 143-3-03 = test: MIC, panel of quinolone-resistant strains (CLSI); assay type: cell-based; details: Pseudomonas aeruginosa, 143303; CIP I, POL R
E. coli CTX-M-15 = test: MIC, panel of quinolone-resistant strains (CLSI); assay type: cell-based; details: Escherichia coli, CTXM15; CIP R, ESBL
[6] = test system: Acinetobacter sp. (H064200250); test: MIC without and with sub-inhibitory polymyxin B (Example 4); assay type: cell-based; details: Acinetobacter, without polymyxin B
A. baumannii A489 [7] = test: as above; assay type: cell-based, Acinetobacter baumannii; details: Acinetobacter baumannii, A489, A. baumannii A489, without polymyxin B, read-out: MIC without PB
A. baumannii A 401 = test: MIC determination for Acinetobacter strains (Example 3); assay type: cell-based; details: A401, LEV R, CIP R, AMK R, TET R
A. baumannii A401 [8] = test: MIC without and with sub-inhibitory polymyxin B (Example 4); assay type: cell-based, Acinetobacter baumannii; details: for MIC: Acinetobacter baumannii, A401, A baumannii A 401, without polymyxin B, read-out: MIC without PB
A. baumannii A401 [9] = test: Preliminary MBC without and with sub-inhibitory polymyxin B (Example 4); assay type: cell-based, Acinetobacter baumannii; details: Acinetobacter baumannii, A401, A baumannii A 401, without polymyxin B, preliminary MBC, read-out: MBC without PB
Pseudomonas ssp PER-1 = test: MIC, panel of quinolone-resistant strains (CLSI); assay type: cell-based, Pseudomonas spp; details: PER1, CIP R, ESBL
E. coli 2906 = test: MIC, panel of quinolone-resistant strains (CLSI); assay type: cell-based; details: Escherichia coli, CIP R
[10] = test system: resistant strains of A. baumannii and one strain of Acinetobacter sp.; test: MIC without and with sub-inhibitory polymyxin B, whole panel / MIC ranges (Example 4; also strains not listed separately); assay type: cell-based; details: Acinetobacter baumannii
Klebsiella ssp KPC-3 = test: MIC, panel of quinolone-resistant strains (CLSI); assay type: cell-based, Klebsiella spp; details: KPC3, CIP R, ESBL
A. baumannii A329 [11] = test: MIC without and with sub-inhibitory polymyxin B (Example 4); assay type: cell-based, Acinetobacter baumannii; details: Acinetobacter baumannii
A. baumannii A329 [12] = test: Preliminary MBC without and with sub-inhibitory polymyxin B (Example 4); assay type: cell-based, Acinetobacter baumannii; details: Acinetobacter baumannii, A329, A. baumannii A329, without polymyxin B, read-out: MBC without PB
A. baumannii A472 [13] = test: MIC determination for Acinetobacter strains (Example 3); assay type: cell-based; details: LEV R, CIP R, MRP I, IMP I, AMK R, TET R
A. baumannii J2 [14] = test: MIC without and with sub-inhibitory polymyxin B (Example 4); assay type: cell-based, Acinetobacter baumannii; details: Acinetobacter baumannii, J2, A. baumannii J2, without polymyxin B, read-out: MIC without PB
A. baumannii A473 = test: as above; assay type: cell-based, Acinetobacter baumannii; details: Acinetobacter baumannii, A473, A. baumannii A473, without polymyxin B, read-out: MIC without PB
[15] = Acinetobacter spp. H064200250 (OXA51), 2nd experiment
[16] = Acinetobacter spp. H064200250, 1st experiment
[17] = Acinetobacter spp. H064200250 (OXA51), 2nd experiment, visual reading, read-out: MIC without PB
[18] = Acinetobacter spp. H064200250, 1st experiment, read-out: MIC without PB
[19] = A329, A. baumannii A329, without polymyxin B, 1st experiment, read-out: MIC without PB
[20] = A329, A. baumannii A329, without polymyxin B, 2nd experiment, visual reading, read-out: MIC without PB

SMILES | MIC (P. aeruginosa 1388-3-02) [µg/mL] | MBC (A. baumannii J2 [2]; 2nd experiment) [µg/mL] | MBC (A. baumannii J2 [2]; 1st experiment) [µg/mL] | MBC [3, 15] [µg/mL] | MBC [3, 16] [µg/mL] | MIC (A. baumannii A329 [4]) [µg/mL] | MBC (A. baumannii A489 [5]; 1st experiment) [µg/mL] | MBC (A. baumannii A489 [5]; 2nd experiment) [µg/mL] | MIC (P. aeruginosa 143-3-03) [µg/mL] | MIC (E. coli CTX-M-15) [µg/mL] | MIC [6, 17] [µg/mL] | MIC [6, 18] [µg/mL] | MIC (A. baumannii A489 [7]; 2nd experiment, visual reading) [µg/mL] | MIC (A. baumannii A 401) [µg/mL] | MIC (A. baumannii A401 [8]; 1st experiment) [µg/mL] | MIC (A. baumannii A401 [8]; 2nd experiment, visual reading) [µg/mL] | MBC (A. baumannii A401 [9]; 2nd experiment) [µg/mL] | MBC (A. baumannii A401 [9]; 1st experiment) [µg/mL] | MIC (Pseudomonas ssp PER-1) [µg/mL] | MIC (E. coli 2906) [µg/mL] | further results
Cc1c(-c2ccc(CN)c(F)c2)ccn2c(=O)c(C(=O)O)cc(C3CC3)c12 [Compound 4, 8-(3-fluoro-4-aminomethyl-phenyl)-1-cyclopropyl-9-methyl-4-oxo-quinolizine-3-carboxylic acid] | 16 (≈ 43.7 µM) | 16 (≈ 43.7 µM) | 4 (≈ 10.9 µM) | 32 (≈ 87.3 µM) | 16 (≈ 43.7 µM) | 16 (≈ 43.7 µM) | 4 (≈ 10.9 µM) | 16 (≈ 43.7 µM) | 4 (≈ 10.9 µM) | 16 (≈ 43.7 µM) | 32 (≈ 87.3 µM) | 16 (≈ 43.7 µM) | 16 (≈ 43.7 µM) | 16 (≈ 43.7 µM) | 16 (≈ 43.7 µM) | 16 (≈ 43.7 µM) | 32 (≈ 87.3 µM) | 4 (≈ 10.9 µM) | 8 (≈ 21.8 µM) | 8 (≈ 21.8 µM) | MIC (A. baumannii A472 [1]; 2nd experiment, visual reading): 16 µg/mL (≈ 43.7 µM); MBC (A. baumannii A390): 32 µg/mL (≈ 87.3 µM); MIC ([6]; Acinetobacter spp. H064200250 (OXA51), 2nd experiment, MIC read with alamar blue, read-out: MIC without PB, read with alamar blue): 16 µg/mL (≈ 43.7 µM); MIC ([10]; read-out: MIC range without PB 01-10-2008 n = 8, without polymyxin B, 1st experiment, 8 strains): 2 to 32 µg/mL (≈ 5.46 to 87.3 µM); MIC ([10]; without polymyxin B, 2nd experiment, 11 strains, read-out: MIC range without PB 14-10-2008 n = 11): 4 to 16 µg/mL (≈ 10.9 to 43.7 µM); MIC (Klebsiella ssp KPC-3): 4 µg/mL (≈ 10.9 µM); MIC (A. baumannii A329 [11]; [19]): 16 µg/mL (≈ 43.7 µM); MIC (A. baumannii A329 [11]; [20]): 16 µg/mL (≈ 43.7 µM); MBC (A. baumannii A329 [12]; 1st experiment): 16 µg/mL (≈ 43.7 µM); MBC (A. baumannii A329 [12]; 2nd experiment): 32 µg/mL (≈ 87.3 µM)
Cc1c(-c2cc(Cl)c(N)c(Cl)c2)ccn2c(=O)c(C(=O)O)cc(C3CC3)c12 [Compound 3, 8-(3,5-dichloro-4-amino-phenyl)-1-cyclopropyl-9-methyl-4-oxo-quinolizine-3-carboxylic acid] | 8 (≈ 19.8 µM) | 32 (≈ 79.4 µM) | 8 (≈ 19.8 µM) | 16 (≈ 39.7 µM) | 8 (≈ 19.8 µM) | 16 (≈ 39.7 µM) | 2 (≈ 4.96 µM) | 4 (≈ 9.92 µM) | 4 (≈ 9.92 µM) | > 32 | 16 (≈ 39.7 µM) | 8 (≈ 19.8 µM) | 4 (≈ 9.92 µM) | 8 (≈ 19.8 µM) | 8 (≈ 19.8 µM) | 16 (≈ 39.7 µM) | 16 (≈ 39.7 µM) | 4 (≈ 9.92 µM) | 32 (≈ 79.4 µM) | > 32 | MIC (A. baumannii A472 [13]): 32 µg/mL (≈ 79.4 µM); MIC ratio without/with polymyxin B (A. baumannii A472 [1]; A. baumannii A472, ratio MIC without PB to MIC + PB, PB […], 2nd experiment): ≥ 1020 µg/mL; MIC (A. baumannii A472 [1]; 1st experiment): 32 µg/mL (≈ 79.4 µM); MIC (A. baumannii J2 [14]; 1st experiment): 8 µg/mL (≈ 19.8 µM); MIC (A. baumannii J2 [14]; 2nd experiment, visual reading): 32 µg/mL (≈ 79.4 µM); MIC (A. baumannii A473; 1st experiment): 4 µg/mL (≈ 9.92 µM); MIC (A. baumannii A473; 2nd experiment, visual reading): 8 µg/mL (≈ 19.8 µM); MIC (A. baumannii A489 [7]; 1st experiment): 4 µg/mL (≈ 9.92 µM); MIC ratio without/with polymyxin B (A. baumannii A401 [8]; A baumannii A 401, ratio MIC without PB to MIC + PB, PB 0.06 μg/ml, 2nd experiment): 128 µg/mL; MIC (Klebsiella ssp KPC-3): 8 µg/mL (≈ 19.8 µM); MIC (A. baumannii A329 [11]; [19]): 16 µg/mL (≈ 39.7 µM); MIC (A. baumannii A329 [11]; [20]): 16 µg/mL (≈ 39.7 µM); MIC (A. baumannii A329 [11]; A329, read-out: MIC +0.06 μg/ml PB, read with alamar blue, A. baumannii A329, +0.06 μg/ml polymyxin B, 2nd experiment, MIC read with alamar blue): 1 µg/mL; MBC (A. baumannii A329 [12]; 1st experiment): 16 µg/mL (≈ 39.7 µM); MBC (A. baumannii A329 [12]; 2nd experiment): 32 µg/mL (≈ 79.4 µM)
